Measurements from patent publication US10206986B2, “Annexin II variant compositions and methods” (REGENTS OF THE UNIVERSITY OF MINNESOTA, priority 2013, dated 2019).

Legend:
breast tumor = assay: Breast-tumor-bearing mice vaccinated intraperitoneally, tumor growth and survival; assay type: in vivo, BALB/c mice; settings: 10 consecutive days intraperitoneally; for survival of tumor bearing mice: breast tumor bearing BALB/c mice, compared to saline or scrambled control, FIG. 5
Protocol: (§1) Next, we investigated the use of the A2OVA in vivo. A2OVA peptide (SEQ ID NO:32) was given to non-tumor bearing mice as described in FIG. 4A to see if they would elicit an OVA specific T cell response. […] To determine if the 35 amino acid annexin II fragment can extend survival in tumor bearing animals in an antigen non-specific manner, we used breast tumor bearing BALB/c mice, which lack the MHC haplotype to present SIINFEKL. Mice were treated with A2OVA peptide as summarized in FIG. 5A and followed for survival.

hTLR2 = target: T1, hTLR2 (Homo sapiens, UniProt O60603); assay: TLR2-transfected HEK 293 Blue cells, secreted alkaline phosphatase (NF-κB activity); assay type: cell-based; settings: 48 hours, FIGS. 3, 6, 7
T1 construct: host or cells: HEK 293 Blue Cells
T1 sequence (O60603 21-784): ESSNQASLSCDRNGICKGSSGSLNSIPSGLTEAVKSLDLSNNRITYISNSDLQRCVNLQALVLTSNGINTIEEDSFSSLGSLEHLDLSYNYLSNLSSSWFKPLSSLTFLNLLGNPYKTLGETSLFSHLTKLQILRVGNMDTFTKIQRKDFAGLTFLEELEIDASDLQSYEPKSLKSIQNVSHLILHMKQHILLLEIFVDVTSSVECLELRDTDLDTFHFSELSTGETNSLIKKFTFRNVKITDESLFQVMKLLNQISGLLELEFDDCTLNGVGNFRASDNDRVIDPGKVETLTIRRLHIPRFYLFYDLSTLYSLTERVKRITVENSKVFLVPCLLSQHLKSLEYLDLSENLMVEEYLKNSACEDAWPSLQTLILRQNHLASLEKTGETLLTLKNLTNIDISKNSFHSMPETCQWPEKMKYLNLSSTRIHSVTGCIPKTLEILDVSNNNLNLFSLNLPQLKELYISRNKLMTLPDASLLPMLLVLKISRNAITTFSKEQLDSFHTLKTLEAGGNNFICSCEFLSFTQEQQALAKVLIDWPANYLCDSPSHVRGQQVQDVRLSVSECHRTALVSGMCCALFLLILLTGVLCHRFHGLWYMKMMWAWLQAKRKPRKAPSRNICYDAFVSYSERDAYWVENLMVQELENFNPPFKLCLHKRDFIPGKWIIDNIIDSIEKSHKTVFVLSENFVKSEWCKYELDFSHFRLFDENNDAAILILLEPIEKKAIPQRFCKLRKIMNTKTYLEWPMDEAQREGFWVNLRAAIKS
Excerpt: (§2) To test if the 35 amino acid N-terminus of annexin II, which distinguishes annexin II from other annexins, contains adjuvant activity, we pulsed bone marrow-derived dendritic cells (BMDC) with gp100+/−A2OVA, fusion peptide containing this 35 amino acid fragment. […] We then tested whether this fusion peptide enhanced adjuvant activity over that of addition of OVA and full length annexin II protein. BMDC were pulsed with A2OVA and we measured the OVA-specific OT-1 CD8 T cell response. […] To further investigate the ability to derive a novel single antigen fusion peptide, we constructed OVA fusion peptides in which an OVA peptide (SEQ ID NO:9) was fused to either an annexin II N-terminal fragment or a scrambled 35 amino acid peptide to produce SEQ ID NO:30 and SEQ ID NO:29, respectively. Peptides were pulsed on TLR2 transfected cells and alkaline phosphatase activity was used to determine NF-κB activity (FIG. 3).
HEK 293 Blue Cells (Invivogen, San Diego, Calif.) stably transfected with hTLR2 were pulsed with annexin II-OVA fusion protein (A2OVA, SEQ ID NO:32) at equal concentration as annexin II monomer (A2 Peptide, SEQ ID NO:28). Scrambled annexin II N-terminus polypeptide (SEQ ID NO:29, Scrambled) and an annexin II fragment (SEQ ID NO:30, Minus p11) were used as controls. Cells were incubated for 48 hours. Following incubation, supernatant was added to Quanti-Blue (Invivogen, San Diego, Calif.) for secreted alkaline phosphatase detection.
(§3) TLR2-transfected HEK 293 Blue Cells and TLR4-transfected HEK 293 Blue Cells (Invivogen, San Diego, Calif.) were pulsed with the N-terminal 15 amino acid annexin II fragment peptide (15aa Peptide, SEQ ID NO:5) at different concentrations. Cells were incubated for 48 hours. Following incubation, supernatant was added to Quanti-Blue (Invivogen, San Diego, Calif.) for secreted alkaline phosphatase detection.
as §3, with “or one of the annexin II variants shown in Table 1.” for “at different concentrations.”

[1] = test system: gp100-specific CD8 T cell response; assay: BMDCs pulsed with hgp100 25-33 plus peptide, co-cultured with Pmel CD8+ T cells, IFN-γ by bead array; assay type: cell-based, C57BL/6 mice; settings: BMDC pulsed with gp100 +/- A2OVA; equal concentration and equal molecular ratio compared to full-length annexin II; FIG. 1
Excerpt: as §2
Bone marrow derived dendritic cells (BMDCs) were differentiated from C57BL/6 mice and pulsed with hgp10025-33 (SEQ ID NO: 27) with annexin II-OVA fusion protein (SEQ ID NO:32) at equal concentration (*) or equal molecular ratio (**) as A2 monomer (SEQ ID NO:28) and incubated for 24 hours. Annexin A2 monomer was used as a positive control. […] IFN-γ in the tissue culture supernatant was quantified by bead array.

[2] = test system: OVA specific CD8+ T cell response; assay: Vaccination of BL/6 mice, CD8+SIINFEKL+ expansion in whole blood on Day 8; assay type: in vivo; settings: four consecutive days, hind leg
Protocol: as §1
BL/6 mice also were vaccinated for four consecutive days in the hind leg with ovalbumin (OVA), ovalbumin+ and 50 μg of the N-terminal 15 amino acid annexin II fragment peptide (SEQ ID NO:5, 15aa), or ovalbumin+50 μg the annexin II variant A-6 (Table 1, SEQ ID NO:17, 15aaP6). On Day 8, mice were bled and whole blood was analyzed for CD8^+SIINFEKL^+ expansion.

[3] = test system: OVA-specific OT-1 CD8 T cell response; assay: BMDCs pulsed with OVA peptide/fusion, co-cultured with OT-I CD8+ T cells, IFN-γ by bead array; assay type: cell-based, mice; settings: BMDC pulsed with A2OVA versus A2 monomer + OVA as separate agents; FIG. 2
Excerpt: as §2
BMDCs were pulsed with OVA248-274 (SEQ ID NO:31), annexin II (A2 monomer, SEQ ID NO:28), a combination of OVA248-274 and annexin II (A2 monomer+OVA), or annexin II-OVA fusion protein (A2OVA, SEQ ID NO:32), and incubated for 24 hours. Purified OT-I CD8^+ T cells were added and co-cultured for an additional 48 hours. IFN-γ in the tissue culture supernatant was quantified by bead array.

[4] = test system: bone marrow derived dendritic cells; assay: BMDCs (wild-type, TLR2-/-, TLR4-/-, MyD88-/-) pulsed with peptide, CD80/CD86 by flow cytometry; assay type: cell-based, mice; settings: 50 μg peptide, 48 hours, TLR2, TLR4 and MyD88 knockout BMDCs, CD11c+MHCII+ gate; for CD80 co-stimulatory molecule expression (MFI): FIG. 11; for CD86 co-stimulatory molecule expression (MFI): FIG. 12
Protocol: To further characterize the activity of the A-6 variant (SEQ ID NO:17), BMDCs from wild-type, TLR2 knockout, TLR4 knockout, and MyD88 knockout mice were pulsed with the peptide and analyzed for co-stimulatory molecules CD80 (FIG. 11) and CD86 (FIG. 12).
BDMCs (wild-type, TLR2^−/−, TLR4^−/−, and MyD88^−/−) were cultured with 20 ng/mL GM-CSF for six days, then pulsed with 50 ng Pam3CSK4, 50 ng LPS, 50 μg of the N-terminal 15 amino acid annexin II fragment peptide (SEQ ID NO:5, 15aa A2p), or 50 μg of annexin II variant A-6 (SEQ ID NO:17, 15aa A2p6 AL). After 48 hours, cells were stained for CD11c, MHC II, CD80, and CD86 and analyzed by flow cytometry. MFI shown is from a live cell, CD11c^+MHCII^+ gate.

TLR4 = target: T2, TLR4 (Homo sapiens, UniProt O00206); assay: TLR4-transfected HEK 293 Blue cells, secreted alkaline phosphatase (NF-κB activity); assay type: cell-based; settings: 48 hours, FIGS. 6, 7
T2 construct: host or cells: HEK 293 Blue Cells
T2 sequence (O00206 24-839, species assumed): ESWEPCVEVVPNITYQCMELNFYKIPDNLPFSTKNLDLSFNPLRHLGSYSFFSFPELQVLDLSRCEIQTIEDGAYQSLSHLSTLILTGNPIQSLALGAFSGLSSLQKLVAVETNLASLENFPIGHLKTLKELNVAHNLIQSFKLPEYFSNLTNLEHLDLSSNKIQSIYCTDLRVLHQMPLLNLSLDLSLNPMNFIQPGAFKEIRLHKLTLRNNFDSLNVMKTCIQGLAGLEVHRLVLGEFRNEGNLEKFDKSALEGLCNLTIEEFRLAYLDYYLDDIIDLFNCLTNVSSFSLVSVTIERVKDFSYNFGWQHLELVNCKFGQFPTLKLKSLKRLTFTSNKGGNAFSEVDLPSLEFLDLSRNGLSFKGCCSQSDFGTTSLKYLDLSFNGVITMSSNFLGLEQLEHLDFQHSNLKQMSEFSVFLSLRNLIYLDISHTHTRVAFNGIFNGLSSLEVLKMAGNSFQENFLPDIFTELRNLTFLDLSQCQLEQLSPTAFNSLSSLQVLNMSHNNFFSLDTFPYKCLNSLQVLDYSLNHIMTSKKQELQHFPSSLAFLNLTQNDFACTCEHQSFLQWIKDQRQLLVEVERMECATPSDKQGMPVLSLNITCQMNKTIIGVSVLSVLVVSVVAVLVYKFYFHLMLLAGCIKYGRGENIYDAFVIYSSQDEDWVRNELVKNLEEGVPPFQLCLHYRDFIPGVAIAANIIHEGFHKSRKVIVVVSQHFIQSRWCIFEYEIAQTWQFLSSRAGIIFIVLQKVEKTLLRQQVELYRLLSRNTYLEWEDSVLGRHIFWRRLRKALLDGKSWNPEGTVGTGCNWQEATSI
T2 sequence (Q9Y6Y9 17-160 partner limits assumed, species assumed): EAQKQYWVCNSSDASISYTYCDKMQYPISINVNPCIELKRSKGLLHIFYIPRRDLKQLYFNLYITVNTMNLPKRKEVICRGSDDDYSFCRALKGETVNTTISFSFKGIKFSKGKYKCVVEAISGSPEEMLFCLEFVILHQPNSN
Excerpt: To better characterize the 35 amino acid N-terminus as an adjuvant, we serially removed five amino acids from the C-terminus end of the N-terminal fragment to produce annexin II variants SEQ ID NO:2, SEQ ID NO:3, SEQ ID NO:4, SEQ ID NO:5, and SEQ ID NO:6. We tested the resulting peptides for NF-κB activity. […] To test the ability of the 15 amino acid annexin II fragment (SEQ ID NO:5) to stimulate an immune response, and to determine whether its ability to do so is mediated through TLR2, wild-type and TLR-2 knockout mice were given OVA±annexin II or OVA±the 15 amino acid N-terminal annexin II fragment (SEQ ID NO:5).
as §3
TLR2-transfected HEK 293 Blue Cells and TLR4-transfected HEK 293 Blue Cells (Invivogen, San Diego, Calif.) were pulsed with the N-terminal 15 amino acid annexin II fragment peptide (15aa Peptide, SEQ ID NO:5) or one of the annexin II variants shown in Table 1. Cells were incubated for 48 hours. […]

[5] = test system: bone marrow derived dendritic cells; assay: BMDCs (wild-type, TLR4-/-, MyD88-/-) pulsed with peptide, TNF in supernatant by bead array; assay type: cell-based, mice; settings: 50 μg peptide, 48 hours, TLR4 knockout and MyD88 knockout BMDCs, FIG. 10
Protocol: To determine the 15 amino acid N-terminal annexin II fragment's activity on dendritic cells, BMDCs were derived for wild-type, TLR4 knockout, and MyD88 knockout mice. The various BMDCs and pulsed with the 15 amino acid N-terminal annexin II fragment (SEQ ID NO:5).
BMDCs (wild-type, TLR4^−/−, and MyD88^−/−) were cultured with 20 ng/mL GM-CSF for six days, then pulsed with 50 ng Pam3CSK4, 50 ng LPS, or 50 μg of the N-terminal 15 amino acid annexin II fragment peptide (SEQ ID NO:5, A2-15aa). After 48 hours, cell culture supernatant was assayed for TNF by bead array.

| Sequence | survival of tumor bearing mice (breast tumor) | tumor size (breast tumor; breast tumor bearing mice, FIG. 5B) | NF-κB activity through TLR2 (alkaline phosphatase) (hTLR2) | adjuvant activity in gp100-specific CD8 T cell response (IFN-γ) [1] | antigen specific CD8+ T cell response in vivo (CD8+SIINFEKL+ expansion) ([2]; non-tumor bearing BL/6 mice, Poly:ICLC and 50 μg peptide, Day 8, FIG. 4B) | IFNγ response of OVA-specific OT-1 CD8 T cells [3] | CD80 co-stimulatory molecule expression (MFI) [4] | CD86 co-stimulatory molecule expression (MFI) [4] | NF-κB activity through TLR4 (alkaline phosphatase) (TLR4) | OVA specific T cell priming in vivo (CD8+SIINFEKL+ expansion) ([2]; BL/6 mice, ovalbumin + 50 μg peptide, Day 8, versus 15aa fragment, FIG. 9) | TNF secretion from BMDCs [5] |
| --- | --- | --- | --- | --- | --- | --- | --- | --- | --- | --- | --- |
| STVHEILCKLSLEGDHSTPPSAYGSVKPYTNFDAEEQLESIINFEKLTEWT (STVHEILCKLSLEGDHSTPPSAYGSVKPYTNFDAEEQLESIINFEKLTEWT; annexin II-OVA fusion protein (A2OVA) polypeptide) [fusion peptide of the 35 amino acid annexin II N-terminus and OVA peptide] | enhanced survival compared to saline or scrambled control | reducing tumor size in vivo | stimulated NF-κB through TLR2 | exerted adjuvant activity | stimulated an antigen specific CD8^+ T cell response in vivo | induced an IFNγ response superior to that of A2 monomer (A2m)+OVA added as separate agents |  |  |  |  |  |
| DHSTPPSAYGSVKPYTNFDAEEQLESIINFEKLTEWT (DHSTPPSAYGSVKPYTNFDAEEQLESIINFEKLTEWT; annexin II peptide fragment minus p11) [SEQ ID NO:30, reference compound] | conferred no survival benefit |  | did not elicit a response |  |  |  |  |  |  |  |  |
| STVHEALCKL SLEGD (STVHEALCKLSLEGD; annexin II variant polypeptide) [A-6, alanine for isoleucine substitution at position six of a 15 amino acid annexin II fragment] |  |  | enhanced TLR2 and TLR4 signaling |  |  |  | increased CD80 and CD86 co-stimulatory molecule expression in a TLR4- and MyD88-dependent manner | increased CD80 and CD86 co-stimulatory molecule expression in a TLR4- and MyD88-dependent manner | enhanced TLR2 and TLR4 signaling | enhanced OVA specific T cell priming in vivo |  |
| STVHEILCKL SLEGD (STVHEILCKLSLEGD; annexin II variant polypeptide) [SEQ ID NO:5, N-terminal 15 amino acid annexin II fragment peptide] |  |  | activated TLR2 |  |  |  | increased CD80 and CD86 co-stimulatory molecule expression in a TLR4- and MyD88-dependent manner | increased CD80 and CD86 co-stimulatory molecule expression in a TLR4- and MyD88-dependent manner |  |  | mediated induction of TNF secretion and that the activity is MyD88-dependent |
